Holding throughout (type): biochemical, Spirodela polyrhiza
Assay [1] relates to T1, SpPAL2.
T1 construct: full-length ORF (2277 bp); about 83 kDa; homotetramer only predicted
The assay is described as follows: Michaelis-Menten kinetics, deamination to trans-cinnamic acid. The conditions noted are these: 0-20 mM L-Phe; pH and temperature of the kinetic runs not clearly stated (activity assay: 100 mM Tris-HCl pH 8.0, 50 °C). The source says:
Michaelis-Menten kinetics, deamination to trans-cinnamic acid on SpPAL2

In assay [2] the test system is T2, SpPAL1.
T2 construct: full-length ORF (2172 bp); about 78 kDa; homotetramer only predicted
Described as above. As to conditions: 0-20 mM L-Phe; pH and temperature of the kinetic runs not clearly stated (activity assay: 100 mM Tris-HCl pH 8.0, 50 °C). The source says:
Michaelis-Menten kinetics, deamination to trans-cinnamic acid on SpPAL1

For assay [3], the system named is T3, SpPAL3.
T3 construct: about 79 kDa; homotetramer only predicted
The description is as above. The conditions noted are these: 0-20 mM L-Phe; pH and temperature of the kinetic runs not clearly stated (activity assay: 100 mM Tris-HCl pH 8.0, 50 °C). The source says: Michaelis-Menten kinetics, deamination to trans-cinnamic acid on SpPAL3

The subject of assay [4] is T1, SpPAL2. In words: Michaelis-Menten kinetics, deamination to p-coumaric acid. As to conditions: 0.1-2.5 mM L-Tyr; pH and temperature of the kinetic runs not clearly stated (activity assay: 100 mM Tris-HCl pH 8.0, 50 °C); Km lies above the tested concentration range. The source says:
Michaelis-Menten kinetics, deamination to p-coumaric acid on SpPAL2

In assay [5] the test system is T2, SpPAL1. The assay is described as above. As to conditions: 0.1-2.5 mM L-Tyr; pH and temperature of the kinetic runs not clearly stated (activity assay: 100 mM Tris-HCl pH 8.0, 50 °C). The source says: Michaelis-Menten kinetics, deamination to p-coumaric acid on SpPAL1

Usually Km stands for the substrate concentration at which the rate is half of its maximum.

Regarding `N[C@@H](Cc1ccccc1)C(=O)O` [L-Phe], the Km in assay [1] came out at 345 µM; in assay [2] it was 252 µM; in assay [3] it was 632 µM.

Take `N[C@@H](Cc1ccc(O)cc1)C(=O)O` [L-Tyr]: the figures for the Michaelis constant (Km) in assay [4] and in assay [5] were 8720 µM and 1290 µM, respectively.

These data come from PMC11435183, “Enzymatic Characterization of SpPAL Genes in S. polyrhiza and Overexpression of the SpPAL3” (Plants, 2024).
